# Measurements taken from ChEMBL document CHEMBL1201862, “PubChem BioAssay data set” (2004).
#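 Exposure lasted 48 hours, with cells grown in 96-well plates and compounds tested at five concentrations. The concentration for 50% growth inhibition is given as GI50.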 Calls of active or inactive are those of the source. No stated cut-off is given here; in the data, active = GI50 up to about 1.1 µM and inactive = higher.
# Experiments:
# Experiment in all cases: growth of human tumour cells (NCI), 48 h
# [1] = test system: SF-539
# [2] = test system: EKVX
# [3] = test system: SR
# [4] = test system: A498
# [5] = test system: MDA-MB-231
# [6] = test system: OVCAR-8
# [7] = test system: IGROV-1
# [8] = test system: BT-549
# [9] = test system: NCI-H460
# [10] = test system: SW-620
# [11] = test system: SK-OV-3
# [12] = test system: RXF 393
# [13] = test system: K562
# [14] = test system: RPMI-8226
# [15] = test system: SF-268
# [16] = test system: COLO 205
# [17] = test system: OVCAR-3
# [18] = test system: SK-MEL-28
# [19] = test system: NCI-H522
Structure (SMILES),GI50 [1],GI50 [2],GI50 [3],GI50 [4],GI50 [5],GI50 [6],GI50 [7],GI50 [8],GI50 [9],GI50 [10],GI50 [11],GI50 [12],GI50 [13],GI50 [14],GI50 [15],GI50 [16],GI50 [17],GI50 [18],GI50 [19]
C=CC(=O)N1C/C(=C\c2ccc(OC)cc2)C(=O)/C(=C/c2ccc(OC)cc2)C1,1.71 µM (inactive),3.35 µM (inactive),0.67 µM (active),1.73 µM (inactive),3.07 µM (inactive),2.88 µM (inactive),2.35 µM (inactive),1.71 µM (inactive),1.9 µM (inactive),1.46 µM (inactive),3.48 µM (inactive),1.61 µM (inactive),2.86 µM (inactive),0.247 µM (active),3.51 µM (inactive),2.99 µM (inactive),1.97 µM (inactive),2.81 µM (inactive),–
COc1ccc2nc(N/N=C/c3ccc(C)s3)cc(C)c2c1,16.5 µM (inactive),26.4 µM (inactive),25.4 µM (inactive),–,21.5 µM (inactive),19.5 µM (inactive),26.2 µM (inactive),14.9 µM (inactive),–,25.1 µM (inactive),22.9 µM (inactive),19.2 µM (inactive),14 µM (inactive),11.2 µM (inactive),20.1 µM (inactive),19.4 µM (inactive),19.6 µM (inactive),26.5 µM (inactive),39.7 µM (inactive)
O=C(C(Cl)Cl)N(O)c1ccccc1OCc1ccccc1,31.3 µM (inactive),22 µM (inactive),22.9 µM (inactive),–,44.8 µM (inactive),8.95 µM (inactive),68.2 µM (inactive),0.0395 µM (active),> 100 µM (inactive),24.8 µM (inactive),> 100 µM (inactive),86.3 µM (inactive),37.6 µM (inactive),34.2 µM (inactive),73.3 µM (inactive),17 µM (inactive),27.7 µM (inactive),37.4 µM (inactive),25.6 µM (inactive)
Cc1ccc(O)c(C2=CC3=NNC(=O)C3C(c3cccc(Cl)c3)C2)c1 (stereo not given),45.2 µM (inactive),37.3 µM (inactive),29.4 µM (inactive),61.9 µM (inactive),34.9 µM (inactive),26.2 µM (inactive),31.2 µM (inactive),26.7 µM (inactive),32.4 µM (inactive),38 µM (inactive),23.9 µM (inactive),2.56 µM (inactive),37.1 µM (inactive),24.4 µM (inactive),30.5 µM (inactive),16 µM (inactive),26.4 µM (inactive),28.1 µM (inactive),–
CC[C@H]1OC([C@H](O)C/C=C\C#C[Si](C)(C)C)C/C=C\C[C@H]1O[Si](C)(C)C(C)(C)C (stereo not given in full),–,> 100 µM (inactive),> 100 µM (inactive),> 100 µM (inactive),> 100 µM (inactive),> 100 µM (inactive),> 100 µM (inactive),> 100 µM (inactive),> 100 µM (inactive),> 100 µM (inactive),> 100 µM (inactive),> 100 µM (inactive),> 100 µM (inactive),37.8 µM (inactive),> 100 µM (inactive),> 100 µM (inactive),> 100 µM (inactive),> 100 µM (inactive),40.9 µM (inactive)
O=c1cccc(Cl)[nH]1,> 100 µM (inactive),> 100 µM (inactive),> 100 µM (inactive),–,> 100 µM (inactive),> 100 µM (inactive),> 100 µM (inactive),> 100 µM (inactive),> 100 µM (inactive),> 100 µM (inactive),> 100 µM (inactive),> 100 µM (inactive),> 100 µM (inactive),> 100 µM (inactive),> 100 µM (inactive),> 100 µM (inactive),> 100 µM (inactive),> 100 µM (inactive),> 100 µM (inactive)
OC(c1ccccc1)C(F)(F)c1nc2ccccc2o1 (stereo not given),> 100 µM (inactive),> 100 µM (inactive),> 100 µM (inactive),14.7 µM (inactive),> 100 µM (inactive),> 100 µM (inactive),> 100 µM (inactive),> 100 µM (inactive),> 100 µM (inactive),> 100 µM (inactive),> 100 µM (inactive),> 100 µM (inactive),27.9 µM (inactive),70 µM (inactive),> 100 µM (inactive),> 100 µM (inactive),–,> 100 µM (inactive),–
N#C[C@@H](c1ccccn1)c1ncccc1[N+](=O)[O-],–,> 100 µM (inactive),> 100 µM (inactive),> 100 µM (inactive),> 100 µM (inactive),> 100 µM (inactive),> 100 µM (inactive),> 100 µM (inactive),> 100 µM (inactive),> 100 µM (inactive),> 100 µM (inactive),> 100 µM (inactive),> 100 µM (inactive),> 100 µM (inactive),> 100 µM (inactive),> 100 µM (inactive),> 100 µM (inactive),> 100 µM (inactive),> 100 µM (inactive)
COc1ccc(/C=N\N2CC(=O)N3C4C=CC(CC4)N3C2=O)cc1 (stereo not given),> 100 µM (inactive),> 100 µM (inactive),> 100 µM (inactive),> 100 µM (inactive),> 100 µM (inactive),58.1 µM (inactive),> 100 µM (inactive),> 100 µM (inactive),> 100 µM (inactive),> 100 µM (inactive),> 100 µM (inactive),–,> 100 µM (inactive),> 100 µM (inactive),88.7 µM (inactive),> 100 µM (inactive),> 100 µM (inactive),> 100 µM (inactive),–
CNC(Cc1ccccc1)c1cccc(OC)c1O (stereo not given),–,92.9 µM (inactive),> 100 µM (inactive),> 100 µM (inactive),> 100 µM (inactive),> 100 µM (inactive),> 100 µM (inactive),> 100 µM (inactive),> 100 µM (inactive),> 100 µM (inactive),–,> 100 µM (inactive),98.2 µM (inactive),–,> 100 µM (inactive),–,60.5 µM (inactive),> 100 µM (inactive),> 100 µM (inactive)
CCOC(=O)C(=C(SC)SC)c1nn2c(=O)cc(C)nc2s1,18.2 µM (inactive),24.3 µM (inactive),24.4 µM (inactive),–,27.9 µM (inactive),23.8 µM (inactive),20.9 µM (inactive),18.2 µM (inactive),24 µM (inactive),21 µM (inactive),69.7 µM (inactive),22.6 µM (inactive),19.2 µM (inactive),17.3 µM (inactive),22.1 µM (inactive),18.6 µM (inactive),18.7 µM (inactive),17.1 µM (inactive),23 µM (inactive)
CCCCNC(=S)Nc1nc(C(=O)NNC(=S)NCc2ccccc2)cs1,31.9 µM (inactive),42.8 µM (inactive),8.24 µM (inactive),> 100 µM (inactive),66.4 µM (inactive),24.1 µM (inactive),30.1 µM (inactive),67 µM (inactive),–,48.2 µM (inactive),88.5 µM (inactive),–,34.4 µM (inactive),45.9 µM (inactive),20.6 µM (inactive),33.9 µM (inactive),52.4 µM (inactive),–,48.5 µM (inactive)
COc1cc(CC(C)=O)cc(OC)c1,–,67.5 µM (inactive),26.6 µM (inactive),35 µM (inactive),36.3 µM (inactive),> 100 µM (inactive),74.1 µM (inactive),52.5 µM (inactive),> 100 µM (inactive),65.6 µM (inactive),> 100 µM (inactive),–,33.3 µM (inactive),27.8 µM (inactive),71.1 µM (inactive),> 100 µM (inactive),56.5 µM (inactive),> 100 µM (inactive),–
COC(=O)C1CC2CCC1(O[Si](C(C)C)(C(C)C)C(C)C)C(O)C2 (stereo not given),–,16 µM (inactive),13.6 µM (inactive),96.6 µM (inactive),17.7 µM (inactive),14.9 µM (inactive),25.8 µM (inactive),26.9 µM (inactive),33.7 µM (inactive),26.4 µM (inactive),43.4 µM (inactive),15 µM (inactive),12.4 µM (inactive),17.5 µM (inactive),26.2 µM (inactive),29.4 µM (inactive),17.3 µM (inactive),19.4 µM (inactive),21.8 µM (inactive)
Cn1c2ccccc2c(=O)c2cccc(C(=O)NC(CS)C(=O)O)c21 (stereo not given),43.2 µM (inactive),> 100 µM (inactive),52.8 µM (inactive),> 100 µM (inactive),60.8 µM (inactive),> 100 µM (inactive),> 100 µM (inactive),> 100 µM (inactive),> 100 µM (inactive),84.9 µM (inactive),> 100 µM (inactive),–,52.1 µM (inactive),26.5 µM (inactive),93.5 µM (inactive),67.5 µM (inactive),> 100 µM (inactive),> 100 µM (inactive),–
C[C@H]1C(OCCOC2O[C@@H]3O[C@@]4(C)CC[C@H]5[C@H](C)CCC([C@H]2C)[C@@]35O4)O[C@@H]2O[C@@]3(C)CC[C@H]4[C@H](C)CCC1[C@@]24O3 (stereo not given in full),55.7 µM (inactive),–,32.2 µM (inactive),46.7 µM (inactive),27.2 µM (inactive),5.3 µM (inactive),24.8 µM (inactive),95.7 µM (inactive),22.6 µM (inactive),44.4 µM (inactive),74.6 µM (inactive),–,> 100 µM (inactive),58.6 µM (inactive),50.5 µM (inactive),16.7 µM (inactive),28.1 µM (inactive),61.5 µM (inactive),–
